How the values were obtained:
Assay type in all cases: in vivo
[1] = system: Diabrotica balteata (Corn Root Worm); assay: Activity against Diabrotica balteata (corn root worm), corn seedlings on filter paper in cups; conditions: 120 h, application rate 3 ppm, L2 larva, 5 days after treatment, read-out: effect in at least one of the two categories (mortality or growth inhibition)
Experimental: Example B12: Activity Against Diabrotica Balteata (Corn Root Worm)
Three corn seedlings were placed on wetted filter paper in plastic cups, and 3 ml of diluted test solutions were pipetted onto them. The cups were infested with 10 L2 larva and checked for mortality and growth regulation 5 days after treatment.

[2] = system: Carpocapsa (Cydia) Pomonella (Codling Moth); assay: Activity against Carpocapsa (Cydia) pomonella (codling moth), sprayed diet cubes; conditions: 336 h, application rate 12.5 ppm, L1 larvae, 14 days after infestation, read-out: effect in at least one of the two categories (mortality or growth inhibition)
Experimental: Example B11: Activity Against Carpocapsa (Cydia) Pomonella (Codling Moth)
Diet cubes coated with paraffin were sprayed with diluted test solutions in an application chamber. After drying off the treated cubes (10 replicates) were infested with 1 L1 larvae. Samples were incubated at 26-27° C. and checked 14 days after infestation for mortality and growth inhibition. The following compounds gave an effect of at least 80% in at least one of the two categories (mortality or growth inhibition) at an application rate of 12.5 ppm: P1, P2, P3, P4, P5, P6, P10, P11, P12, P14, P15, P16, P17, P19, P20, P21, P22, P24, P27, P29, P30, P33, P34, P35.

[3] = system: Plutella xylostella (Diamond Back Moth); assay: Activity against Plutella xylostella (diamond back moth), treated artificial diet; conditions: 192 h, application rate 200 ppm, eggs, 8 days after infestation, read-out: effect in at least one of the two categories (mortality or growth inhibition)
Experimental: Example B5: Activity Against Plutella xylostella (Diamond Back Moth)
24-well microtiter plates with artificial diet were treated with aqueous test solutions prepared from 10,000 ppm DMSO stock solutions by pipetting. After drying, Plutella eggs were pipetted through a plastic stencil onto a gel blotting paper and the plate was closed with it. The samples were assessed for mortality and growth inhibition in comparison to untreated samples 8 days after infestation.

[4] = system: Myzus persicae (Green Peach Aphid); assay: Activity against Myzus persicae (green peach aphid), feeding/contact activity; conditions: 144 h, application rate 200 ppm, mixed ages, 6 days after infestation
Experimental: Example B6: Activity Against Myzus persicae (Green Peach Aphid) Feeding/Contact Activity
Sunflower leaf discs were placed onto agar in a 24-well microtiter plate and sprayed with aqueous test solutions prepared from 10,000 ppm DMSO stock solutions. After drying, the leaf discs were infested with an aphid population of mixed ages. The samples were assessed for mortality 6 days after infestation.

[5] = system: Spodoptera littoralis (Egyptian Cotton Leaf Worm); assay: Activity against Spodoptera littoralis (Egyptian cotton leaf worm), sprayed cotton leaf discs; conditions: foliar, 72 h, application rate 200 ppm, L1 larvae, 3 days after infestation
Experimental: Example B7: Activity Against Spodoptera littoralis (Egyptian Cotton Leaf Worm)
Cotton leaf discs were placed onto agar in 24-well microtiter plates and sprayed with aqueous test solutions prepared from 10,000 ppm DMSO stock solutions. After drying the leaf discs were infested with five L1 larvae. The samples were assessed for mortality, anti-feeding effect, and growth inhibition in comparison to untreated samples 3 days after infestation. Control of Spodoptera littoralis by a test sample is given when at least one of the categories mortality, anti-feedant effect, and growth inhibition is higher than the untreated sample.

[6] = system: Diabrotica balteata (Corn Root Worm); assay: Activity against Diabrotica balteata (corn root worm), sprayed maize sprouts on agar; conditions: 96 h, application rate 200 ppm, L2 larvae, 4 days after infestation, read-out: effect in at least one of the two categories (mortality or growth inhibition)
Experimental: Example B2: Activity Against Diabrotica balteata (Corn Root Worm)
Maize sprouts placed onto an agar layer in 24-well microtiter plates were treated with aqueous test solutions prepared from 10,000 ppm DMSO stock solutions by spraying. After drying, the plates were infested with L2 larvae (6 to 10 per well). The samples were assessed for mortality and growth inhibition in comparison to untreated samples 4 days after infestation.

[7] = system: Euschistus heros (Neotropical Brown Stink Bug); assay: Activity against Euschistus heros (neotropical brown stink bug), sprayed soybean leaves; conditions: 120 h, application rate 200 ppm, N2 nymphs, 5 days after infestation, read-out: effect in at least one of the two categories (mortality or growth inhibition)
Experimental: Example B3: Activity Against Euschistus heros (Neotropical Brown Stink Bug)
Soybean leaves on agar in 24-well microtiter plates were sprayed with aqueous test solutions prepared from 10,000 ppm DMSO stock solutions. After drying the leaves were infested with N2 nymphs. The samples were assessed for mortality and growth inhibition in comparison to untreated samples 5 days after infestation.

[8] = system: Chilo suppressalis (Striped Rice Stemborer); assay: Activity against Chilo suppressalis (striped rice stemborer), treated artificial diet; conditions: 144 h, application rate 200 ppm, L2 larvae, 6 days after infestation
Experimental: Example B10: Activity Against Chilo suppressalis (Striped Rice Stemborer)
24-well microtiter plates with artificial diet were treated with aqueous test solutions prepared from 10,000 ppm DMSO stock solutions by pipetting. After drying, the plates were infested with L2 larvae (6-8 per well). The samples were assessed for mortality, anti-feeding effect, and growth inhibition in comparison to untreated samples 6 days after infestation. Control of Chilo suppressalis by a test sample is given when at least one of the categories mortality, anti-feedant effect, and growth inhibition is higher than the untreated sample.

CCS(=O)(=O)c1c(N2Cc3ncc(C(F)(F)F)cc3C2=O)nc2cc(C(F)(F)F)ccn12 [Compound P2, 6-[3-ethylsulfonyl-7-(trifluoromethyl)imidazo[1,2-a]pyridin-2-yl]-3-(trifluoromethyl)-7H-pyrrolo[3,4-b]pyridin-5-one]
≥ 80%: percent effect (mortality or growth inhibition) at 3 ppm [1] | percent effect (mortality or growth inhibition) at 12.5 ppm [2] | percent effect (mortality or growth inhibition) at 200 ppm [3] | mortality at 200 ppm [4] | percent control (mortality, anti-feedant effect or growth inhibition) at 200 ppm [5] | percent effect (mortality or growth inhibition) at 200 ppm [6]

CCS(=O)(=O)c1c(N2Cc3ncc(C(F)(F)F)cc3C2=O)nc2ccc(OC)cn12 [Compound P8, 6-(3-ethylsulfonyl-6-methoxy-imidazo [1,2-a]pyridin-2-yl)-3-(trifluoromethyl)-7H-pyrrolo[3,4-b] pyridin-5-one]
≥ 80%: percent effect (mortality or growth inhibition) at 200 ppm [3] | percent control (mortality, anti-feedant effect or growth inhibition) at 200 ppm [5] | percent effect (mortality or growth inhibition) at 200 ppm [6] | percent effect (mortality or growth inhibition) at 200 ppm [7]

CCS(=O)(=O)c1c(N2Cc3ncc(C(F)(F)F)cc3C2=O)nc2ccc(OC(C)C)cn12 [Compound P9, 6-(3-ethylsulfonyl-6-isopropoxy-imidazo [1,2-a]pyridin-2-yl)-3-(trifluoromethyl)-7H-pyrrolo[3,4-b] pyridin-5-one]
≥ 80%: percent control (mortality, anti-feedant effect or growth inhibition) at 200 ppm [5]

CCS(=O)(=O)c1c(N2Cc3ncc(C(F)(F)F)cc3C2=O)nc2ccc(OCC(F)(F)F)cn12 [Compound P11, 6-[3-ethylsulfonyl-6-(2,2,2-trifluoroethoxy)imidazo[1,2-a]pyridin-2-yl]-3-(trifluoromethyl)-7H-pyrrolo[3,4-b]pyridin-5-one]
≥ 80%: percent effect (mortality or growth inhibition) at 3 ppm [1] | percent effect (mortality or growth inhibition) at 12.5 ppm [2] | percent effect (mortality or growth inhibition) at 200 ppm [3] | mortality at 200 ppm [4] | percent control (mortality, anti-feedant effect or growth inhibition) at 200 ppm [5] | percent control (mortality, anti-feedant effect or growth inhibition) at 200 ppm [8] | percent effect (mortality or growth inhibition) at 200 ppm [6]

CCS(=O)(=O)c1c(N2Cc3ncc(C(F)(F)F)cc3C2=O)nc2cc(OCC(F)(F)F)ccn12 [Compound P12, 6-[3-ethylsulfonyl-7-(2,2,2-trifluoroethoxy)imidazo[1,2-a]pyridin-2-yl]-3-(trifluoromethyl)-7H-pyrrolo[3,4-b]pyridin-5-one]
≥ 80%: percent effect (mortality or growth inhibition) at 3 ppm [1] | percent effect (mortality or growth inhibition) at 12.5 ppm [2] | percent effect (mortality or growth inhibition) at 200 ppm [3] | mortality at 200 ppm [4] | percent control (mortality, anti-feedant effect or growth inhibition) at 200 ppm [5] | percent control (mortality, anti-feedant effect or growth inhibition) at 200 ppm [8] | percent effect (mortality or growth inhibition) at 200 ppm [6] | percent effect (mortality or growth inhibition) at 200 ppm [7]

CCS(=O)(=O)c1c(N2Cc3ncc(C(F)(F)F)cc3C2=O)nc2ccc(C(C)(F)F)cn12 [Compound P18, 6-[6-(1,1-difluoroethyl)-3-ethylsulfonyl-imidazo [1,2-a]pyridin-2-yl]-3-(trifluoromethyl)-7H-pyrrolo[3,4-b]pyridin-5-one]
≥ 80%: percent effect (mortality or growth inhibition) at 3 ppm [1]

CCS(=O)(=O)c1c(N2Cc3ncc(C(F)(F)F)cc3C2=O)nc2cc(Br)ccn12 [Compound P22, 6-(7-bromo-3-ethylsulfonyl-imidazo[1,2-a]pyridin-2-yl)-3-(trifluoromethyl)-7H-pyrrolo[3,4-b]pyridin-5-one]
≥ 80%: percent effect (mortality or growth inhibition) at 3 ppm [1] | percent effect (mortality or growth inhibition) at 12.5 ppm [2] | percent effect (mortality or growth inhibition) at 200 ppm [3] | mortality at 200 ppm [4] | percent control (mortality, anti-feedant effect or growth inhibition) at 200 ppm [5] | percent control (mortality, anti-feedant effect or growth inhibition) at 200 ppm [8] | percent effect (mortality or growth inhibition) at 200 ppm [6]

CCS(=O)(=O)c1c(N2Cc3ccc(OC(F)(F)F)cc3C2=O)nc2cc(OCC(F)(F)F)ccn12 [Compound P28, 2-[3-ethylsulfonyl-7-(2,2,2-trifluoroethoxy)imidazo[1,2-a]pyridin-2-yl]-6-(trifluoromethoxy) isoindolin-1-one]
≥ 80%: percent effect (mortality or growth inhibition) at 3 ppm [1]

CCS(=O)(=O)c1c(N2Cc3ccc(OC(F)(F)F)cc3C2=O)nc2ccc(Br)cn12 [Compound P29, 2-(6-bromo-3-ethylsulfonyl-imidazo [1,2-a]pyridin-2-yl)-6-(trifluoromethoxy) isoindolin-1-one]
≥ 80%: percent effect (mortality or growth inhibition) at 3 ppm [1] | percent effect (mortality or growth inhibition) at 12.5 ppm [2] | percent effect (mortality or growth inhibition) at 200 ppm [3] | mortality at 200 ppm [4] | percent control (mortality, anti-feedant effect or growth inhibition) at 200 ppm [5] | percent control (mortality, anti-feedant effect or growth inhibition) at 200 ppm [8] | percent effect (mortality or growth inhibition) at 200 ppm [6]

CCS(=O)(=O)c1c(N2Cc3ccc(S(=O)(=O)C(F)(F)F)cc3C2=O)nc2ccc(Br)cn12 [Compound P30, 2-(6-bromo-3-ethylsulfonyl-imidazo[1,2-a]pyridin-2-yl)-6-(trifluoromethyl-sulfonyl) isoindolin-1-one]
≥ 80%: percent effect (mortality or growth inhibition) at 3 ppm [1] | percent effect (mortality or growth inhibition) at 12.5 ppm [2] | percent effect (mortality or growth inhibition) at 200 ppm [3] | percent control (mortality, anti-feedant effect or growth inhibition) at 200 ppm [5] | percent control (mortality, anti-feedant effect or growth inhibition) at 200 ppm [8] | percent effect (mortality or growth inhibition) at 200 ppm [6]

CCS(=O)(=O)c1c(N2Cc3ncc(C(F)(F)F)cc3C2=O)nc2ccc(OCC3(C#N)CC3)cn12 [Compound P31, 1-[[3-ethylsulfonyl-2-[5-oxo-3-(trifluoromethyl)-7H-pyrrolo[3,4-b]pyridin-6-yl]imidazo [1,2-a]pyridin-6-yl]oxymethyl] cyclopropane-carbonitrile]
≥ 80%: percent effect (mortality or growth inhibition) at 200 ppm [3] | percent control (mortality, anti-feedant effect or growth inhibition) at 200 ppm [5] | percent control (mortality, anti-feedant effect or growth inhibition) at 200 ppm [8] | percent effect (mortality or growth inhibition) at 200 ppm [6]

CCS(=O)(=O)c1c(N2Cc3ccc(S(=O)(=O)C(F)(F)F)cc3C2=O)nc2ccc(C(F)(F)F)cn12 [Compound P32, 2-[3-ethylsulfonyl-6-(trifluoromethyl)imidazo[1,2-a]pyridin-2-yl]-6-(trifluoromethyl-sulfonyl) isoindolin-1-one]
≥ 80%: percent effect (mortality or growth inhibition) at 3 ppm [1] | percent effect (mortality or growth inhibition) at 200 ppm [3] | percent control (mortality, anti-feedant effect or growth inhibition) at 200 ppm [5] | percent control (mortality, anti-feedant effect or growth inhibition) at 200 ppm [8] | percent effect (mortality or growth inhibition) at 200 ppm [6]

CCS(=O)(=O)c1c(N2Cc3ccc(OC(F)F)cc3C2=O)nc2ccc(C(F)(F)F)cn12 [Compound P34, 6-(difluoromethoxy)-2-[3-ethylsulfonyl-6-(trifluoromethyl)imidazo[1,2-a]pyridin-2-yl]isoindolin-1-one]
≥ 80%: percent effect (mortality or growth inhibition) at 3 ppm [1] | percent effect (mortality or growth inhibition) at 12.5 ppm [2] | percent effect (mortality or growth inhibition) at 200 ppm [3] | mortality at 200 ppm [4] | percent control (mortality, anti-feedant effect or growth inhibition) at 200 ppm [5] | percent control (mortality, anti-feedant effect or growth inhibition) at 200 ppm [8] | percent effect (mortality or growth inhibition) at 200 ppm [6]

Reference: patent US12696901B2, “Pesticidally active heterocyclic derivatives with sulfur containing substituents” (SYNGENTA CROP PROTECTION AG, priority 2020, dated 2026)
